Results as given in US9783572B2, “Synthesis of syrbactin proteasome inhibitors” (The Regents of the University of California, priority 2009, dated 2017).

Tests used:
[1] = test system: ubiquitinated proteins (proteasome activity) in REH cells; experiment: Western blot with anti-ubiquitin antibody in treated REH cells (FIG. 3); format: cell-based, human; conditions: increasing concentrations
From the text: An antibody against ubiquitin to reveal the presence of ubiquitinated proteins, which accumulate (and present as a smear, due to different molecular weights) in response to the inhibition of proteasome activity. Actin was used as a loading control.

[2] = test system: RPMI/8226 multiple myeloma cell line; experiment: Percent survival of cells, multiple myeloma versus leukemia line (FIG. 2); format: cell-based; conditions: FIG. 2, percent survival
From the text: Bortezomib (BZM), the first proteasome inhibitor to reach the clinic, is being used to treat patients with multiple myeloma and mantle cell lymphoma, and this is reflective of this agent's differential potency in different tumor cell types.

proteasome = experiment: Syringolin A treatment of a human neuroblastoma cell line; format: cell-based; conditions: 25 μM
From the text: They are members of a bioactive natural product family and includes the glidobactins/cepafungins now referred to as the syrbactins. Crystallography established that both syringolin A and B form a covalent adduct with the proteasome via conjugate addition of the N-terminal threonine hydroxyl group to their α,β-unsaturated lactams. Given the known properties of proteasome inhibitors, the action of syringolin A in cancer cells was investigated.

Structure (SMILES)	accumulation of ubiquitinated proteins [1]	cytotoxicity in RPMI/8226 multiple myeloma cells compared with REH acute lymphocytic leukemia cells [2]	accumulation of ubiquitinated proteins (proteasome)	proteasome activity (proteasome)
CC(C)C[C@H](NC(=O)[C@H](Cc1ccccc1)NC(=O)c1cnccn1)B(O)O [BZM, Bortezomib]	substantial accumulation of ubiquitinated proteins	more cytotoxic to multiple myeloma cells	–	–
CC(C)[C@H](NC(=O)N[C@H](C(=O)N[C@H]1/C=C/CCNC(=O)/C=C/[C@H](C(C)C)NC1=O)C(C)C)C(=O)O [syringolin A]	–	–	time-dependent accumulation of ubiquitinated proteins	dose-dependent decrease in proteasome activity
